Measured values from ChEMBL document CHEMBL3885881, “DrugMatrix”.

Species: Rattus norvegicus
Test: DrugMatrix - Regimen: Daily Repeat
Type: toxicity, organism-based, Sprague-Dawley
Set-up: regimen Daily Repeat, gender Male, age 6-8 weeks
Settings: in vivo, po, route oral GAVAGE, vehicle .5 % CMC; for BASOPHIL / EOSINOPHIL / ERYTHROCYTE COUNT / HEMATOCRIT / HEMOGLOBIN / LEUKOCYTE COUNT / LYMPHOCYTE / MEAN CORPUSCULAR HEMOGLOBIN / MEAN CORPUSCULAR HEMOGLOBIN CONCENTRATION / MEAN CORPUSCULAR VOLUME / MONOCYTE / NEUTROPHIL / PLATELET COUNT: tissue Blood; for ALANINE AMINOTRANSFERASE / ALBUMIN / ALKALINE PHOSPHATASE / ASPARTATE AMINOTRANSFERASE / BLOOD UREA NITROGEN / CHLORIDE / CHOLESTEROL / CREATINE PHOSPHOKINASE / CREATININE / GLUCOSE / PHOSPHORUS / POTASSIUM / SODIUM / TOTAL BILIRUBIN / TOTAL PROTEIN: tissue Plasma
[1] = 0 mg/kg, 72 h, dose level Control, time 3 day
[2] = 0 mg/kg, 120 h, dose level Control, time 5 day
[3] = 3 mg/kg, 72 h, dose level Low, time 3 day
[4] = 3 mg/kg, 120 h, dose level Low, time 5 day

O=C1CCC(N2C(=O)c3ccccc3C2=O)C(=O)N1 (configuration not stated) [THALIDOMIDE]
BASOPHIL [1]: 1.52% | EOSINOPHIL [1]: 0.98% | ERYTHROCYTE COUNT [1]: 6.96 x10E6/uL | HEMATOCRIT [1]: 44.65% | HEMOGLOBIN [1]: 13.62 G/DL | LEUKOCYTE COUNT [1]: 9.83 x10E3/uL | LYMPHOCYTE [1]: 76.48% | MEAN CORPUSCULAR HEMOGLOBIN [1]: 19.57 pg | MEAN CORPUSCULAR HEMOGLOBIN CONCENTRATION [1]: 30.47 G/DL | MEAN CORPUSCULAR VOLUME [1]: 64.22 fL | MONOCYTE [1]: 2.13% | NEUTROPHIL [1]: 18.6% | PLATELET COUNT [1]: 1217.17 x10E3/uL | ALANINE AMINOTRANSFERASE [1]: 41 u/L | ALBUMIN [1]: 3.77 G/DL | ALKALINE PHOSPHATASE [1]: 411.83 u/L | ASPARTATE AMINOTRANSFERASE [1]: 62.83 u/L | BLOOD UREA NITROGEN [1]: 15.17 mg/dL | CHLORIDE [1]: 104.33 MEQ/L | CHOLESTEROL [1]: 71.17 mg/dL | CREATINE PHOSPHOKINASE [1]: 123.5 u/L | CREATININE [1]: 0.55 mg/dL | GLUCOSE [1]: 182.67 mg/dL | PHOSPHORUS [1]: 11.23 mg/dL | POTASSIUM [1]: 7.03 MEQ/L | SODIUM [1]: 148 MEQ/L | TOTAL BILIRUBIN [1]: 0.57 mg/dL | TOTAL PROTEIN [1]: 6.85 G/DL | BASOPHIL [2]: 1.35% | EOSINOPHIL [2]: 0.43% | ERYTHROCYTE COUNT [2]: 6.96 x10E6/uL | HEMATOCRIT [2]: 44.35% | HEMOGLOBIN [2]: 13.98 G/DL | LEUKOCYTE COUNT [2]: 9.45 x10E3/uL | LYMPHOCYTE [2]: 80.83% | MEAN CORPUSCULAR HEMOGLOBIN [2]: 20.1 pg | MEAN CORPUSCULAR HEMOGLOBIN CONCENTRATION [2]: 31.52 G/DL | MEAN CORPUSCULAR VOLUME [2]: 63.72 fL | MONOCYTE [2]: 2.37% | NEUTROPHIL [2]: 14.05% | PLATELET COUNT [2]: 1298 x10E3/uL | ALANINE AMINOTRANSFERASE [2]: 42.17 u/L | ALBUMIN [2]: 3.77 G/DL | ALKALINE PHOSPHATASE [2]: 419 u/L | ASPARTATE AMINOTRANSFERASE [2]: 66.67 u/L | BLOOD UREA NITROGEN [2]: 16.67 mg/dL | CHLORIDE [2]: 103.17 MEQ/L | CHOLESTEROL [2]: 66.33 mg/dL | CREATINE PHOSPHOKINASE [2]: 148.33 u/L | CREATININE [2]: 0.58 mg/dL | GLUCOSE [2]: 196.83 mg/dL | PHOSPHORUS [2]: 11.8 mg/dL | POTASSIUM [2]: 6.47 MEQ/L | SODIUM [2]: 148.33 MEQ/L | TOTAL BILIRUBIN [2]: 0.53 mg/dL | TOTAL PROTEIN [2]: 6.77 G/DL | BASOPHIL [3]: 1.53% | EOSINOPHIL [3]: 0.27% | ERYTHROCYTE COUNT [3]: 6.9 x10E6/uL | HEMATOCRIT [3]: 43.27% | HEMOGLOBIN [3]: 13.43 G/DL | LEUKOCYTE COUNT [3]: 12.1 x10E3/uL | LYMPHOCYTE [3]: 84.1% | MEAN CORPUSCULAR HEMOGLOBIN [3]: 19.47 pg | MEAN CORPUSCULAR HEMOGLOBIN CONCENTRATION [3]: 31.03 G/DL | MEAN CORPUSCULAR VOLUME [3]: 62.73 fL | MONOCYTE [3]: 2.13% | NEUTROPHIL [3]: 11.37% | PLATELET COUNT [3]: 1452.67 x10E3/uL | ALANINE AMINOTRANSFERASE [3]: 33 u/L | ALBUMIN [3]: 3.63 G/DL | ALKALINE PHOSPHATASE [3]: 276 u/L | ASPARTATE AMINOTRANSFERASE [3]: 53.33 u/L | BLOOD UREA NITROGEN [3]: 11 mg/dL | CHLORIDE [3]: 103 MEQ/L | CHOLESTEROL [3]: 57.67 mg/dL | CREATINE PHOSPHOKINASE [3]: 135.33 u/L | CREATININE [3]: 0.5 mg/dL | GLUCOSE [3]: 177.33 mg/dL | PHOSPHORUS [3]: 12.77 mg/dL | POTASSIUM [3]: 6.87 MEQ/L | SODIUM [3]: 148.67 MEQ/L | TOTAL BILIRUBIN [3]: 0.33 mg/dL | TOTAL PROTEIN [3]: 6.27 G/DL | BASOPHIL [4]: 2.03% | EOSINOPHIL [4]: 0.3% | ERYTHROCYTE COUNT [4]: 6.85 x10E6/uL | HEMATOCRIT [4]: 42.57% | HEMOGLOBIN [4]: 13.47 G/DL | LEUKOCYTE COUNT [4]: 11.43 x10E3/uL | LYMPHOCYTE [4]: 80.43% | MEAN CORPUSCULAR HEMOGLOBIN [4]: 19.63 pg | MEAN CORPUSCULAR HEMOGLOBIN CONCENTRATION [4]: 31.7 G/DL | MEAN CORPUSCULAR VOLUME [4]: 62.13 fL | MONOCYTE [4]: 3.03% | NEUTROPHIL [4]: 13.67% | PLATELET COUNT [4]: 1535.33 x10E3/uL | ALANINE AMINOTRANSFERASE [4]: 37 u/L | ALBUMIN [4]: 3.47 G/DL | ALKALINE PHOSPHATASE [4]: 320 u/L | ASPARTATE AMINOTRANSFERASE [4]: 57 u/L | BLOOD UREA NITROGEN [4]: 12 mg/dL | CHLORIDE [4]: 102.67 MEQ/L | CHOLESTEROL [4]: 62.33 mg/dL | CREATINE PHOSPHOKINASE [4]: 138 u/L | CREATININE [4]: 0.5 mg/dL | GLUCOSE [4]: 187.67 mg/dL | PHOSPHORUS [4]: 11.93 mg/dL | POTASSIUM [4]: 6.03 MEQ/L | SODIUM [4]: 146.33 MEQ/L | TOTAL BILIRUBIN [4]: 0.3 mg/dL | TOTAL PROTEIN [4]: 6.13 G/DL
